# In PubChem BioAssay (NCI):
#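 48-hour exposure; five concentrations; linearly interpolated endpoints. TGI: total growth inhibition.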
# What was measured:
# Assay in all cases: NCI-60 cell line screen, 48 h
# NCI-H522 lung = tested on: NCI-H522 lung
# SNB-19 CNS = tested on: SNB-19 CNS
# RXF 393 renal = tested on: RXF 393 renal
# SK-MEL-28 melanoma = tested on: SK-MEL-28 melanoma
# SF-539 CNS = tested on: SF-539 CNS
# NCI-H460 lung = tested on: NCI-H460 lung
# HCC-2998 colon = tested on: HCC-2998 colon
# UACC-257 melanoma = tested on: UACC-257 melanoma
# CCRF-CEM leukemia = tested on: CCRF-CEM leukemia
# U251 CNS = tested on: U251 CNS
# OVCAR-5 ovarian = tested on: OVCAR-5 ovarian
# OVCAR-8 ovarian = tested on: OVCAR-8 ovarian
# ACHN renal = tested on: ACHN renal
# DU-145 prostate = tested on: DU-145 prostate
# HT29 colon = tested on: HT29 colon
# UACC-62 melanoma = tested on: UACC-62 melanoma
# EKVX NSCLC = tested on: EKVX NSCLC
# 786-0 renal = tested on: 786-0 renal
# A498 renal = tested on: A498 renal
# A549 NSCLC = tested on: A549 NSCLC
# MOLT-4 leukemia = tested on: MOLT-4 leukemia
# HCT-116 colon = tested on: HCT-116 colon
# HCT-15 colon = tested on: HCT-15 colon
# SK-OV-3 ovarian = tested on: SK-OV-3 ovarian
# IGROV1 ovarian = tested on: IGROV1 ovarian
# SW-620 colon = tested on: SW-620 colon
# OVCAR-4 ovarian = tested on: OVCAR-4 ovarian
# SR leukemia = tested on: SR leukemia
# BT-549 breast = tested on: BT-549 breast
# HOP-62 NSCLC = tested on: HOP-62 NSCLC
# MCF7 breast = tested on: MCF7 breast
# TK-10 renal = tested on: TK-10 renal
# HL-60(TB) leukemia = tested on: HL-60(TB) leukemia
# M14 melanoma = tested on: M14 melanoma
# NCI-H23 lung = tested on: NCI-H23 lung
# RPMI-8226 leukemia = tested on: RPMI-8226 leukemia
# SF-268 CNS = tested on: SF-268 CNS
# SNB-75 CNS = tested on: SNB-75 CNS
# MDA-N = tested on: MDA-N
# PC-3 prostate = tested on: PC-3 prostate
# UO-31 renal = tested on: UO-31 renal
# MALME-3M melanoma = tested on: MALME-3M melanoma
# SK-MEL-5 melanoma = tested on: SK-MEL-5 melanoma
# COLO 205 colon = tested on: COLO 205 colon
# HOP-92 NSCLC = tested on: HOP-92 NSCLC
# SN12C renal = tested on: SN12C renal
# MDA-MB-435 = tested on: MDA-MB-435
# CAKI-1 renal = tested on: CAKI-1 renal
# T-47D breast = tested on: T-47D breast
# SF-295 CNS = tested on: SF-295 CNS
# NCI-H226 lung = tested on: NCI-H226 lung
# LOX IMVI melanoma = tested on: LOX IMVI melanoma
# K-562 leukemia = tested on: K-562 leukemia
# HS 578T breast = tested on: HS 578T breast
# OVCAR-3 ovarian = tested on: OVCAR-3 ovarian
# SK-MEL-2 melanoma = tested on: SK-MEL-2 melanoma
# KM12 colon = tested on: KM12 colon
# NCI/ADR-RES ovarian = tested on: NCI/ADR-RES ovarian
# MDA-MB-231 breast = tested on: MDA-MB-231 breast
compound,measurement,setting,value
COCOc1ccc(C(=O)C(C)c2ccc(OCOC)cc2OCOC)c(O)c1 (stereo unspecified),TGI,NCI-H522 lung,> 100 µM
same,TGI,SNB-19 CNS,> 100 µM
same,TGI,RXF 393 renal,> 100 µM
same,TGI,SK-MEL-28 melanoma,> 100 µM
same,TGI,SF-539 CNS,> 100 µM
same,TGI,NCI-H460 lung,> 100 µM
same,TGI,HCC-2998 colon,> 100 µM
same,TGI,UACC-257 melanoma,> 100 µM
same,TGI,CCRF-CEM leukemia,> 100 µM
same,TGI,U251 CNS,> 100 µM
same,TGI,OVCAR-5 ovarian,> 100 µM
same,TGI,OVCAR-8 ovarian,> 100 µM
same,TGI,ACHN renal,> 100 µM
same,TGI,DU-145 prostate,> 100 µM
same,TGI,HT29 colon,> 100 µM
same,TGI,UACC-62 melanoma,> 100 µM
same,TGI,EKVX NSCLC,> 100 µM
same,TGI,786-0 renal,> 100 µM
same,TGI,A498 renal,> 100 µM
same,TGI,A549 NSCLC,> 100 µM
same,TGI,MOLT-4 leukemia,> 100 µM
same,TGI,HCT-116 colon,> 100 µM
same,TGI,HCT-15 colon,> 100 µM
same,TGI,SK-OV-3 ovarian,> 100 µM
same,TGI,IGROV1 ovarian,> 100 µM
same,TGI,SW-620 colon,> 100 µM
same,TGI,OVCAR-4 ovarian,> 100 µM
same,TGI,SR leukemia,> 100 µM
same,TGI,BT-549 breast,> 100 µM
same,TGI,HOP-62 NSCLC,> 100 µM
same,TGI,MCF7 breast,> 100 µM
same,TGI,TK-10 renal,> 100 µM
same,TGI,HL-60(TB) leukemia,> 100 µM
same,TGI,M14 melanoma,> 100 µM
same,TGI,NCI-H23 lung,> 100 µM
same,TGI,RPMI-8226 leukemia,> 100 µM
same,TGI,SF-268 CNS,> 100 µM
same,TGI,SNB-75 CNS,> 100 µM
same,TGI,MDA-N,> 100 µM
same,TGI,PC-3 prostate,> 100 µM
same,TGI,UO-31 renal,> 100 µM
same,TGI,MALME-3M melanoma,> 100 µM
same,TGI,SK-MEL-5 melanoma,> 100 µM
same,TGI,COLO 205 colon,> 100 µM
same,TGI,HOP-92 NSCLC,> 100 µM
same,TGI,SN12C renal,> 100 µM
same,TGI,MDA-MB-435,> 100 µM
same,TGI,CAKI-1 renal,> 100 µM
N#Cc1cc(C#N)c(Cl)nc1N,TGI,SNB-19 CNS,> 10 µM
same,TGI,RXF 393 renal,> 10 µM
same,TGI,T-47D breast,> 10 µM
same,TGI,SK-MEL-28 melanoma,> 10 µM
same,TGI,SF-295 CNS,> 10 µM
same,TGI,SF-539 CNS,> 10 µM
same,TGI,NCI-H460 lung,> 10 µM
same,TGI,NCI-H226 lung,> 10 µM
same,TGI,LOX IMVI melanoma,> 10 µM
same,TGI,HCC-2998 colon,> 10 µM
same,TGI,CCRF-CEM leukemia,> 10 µM
same,TGI,U251 CNS,> 10 µM
same,TGI,OVCAR-8 ovarian,> 10 µM
same,TGI,ACHN renal,> 10 µM
same,TGI,K-562 leukemia,> 10 µM
same,TGI,HT29 colon,> 10 µM
same,TGI,UACC-62 melanoma,> 10 µM
same,TGI,EKVX NSCLC,> 10 µM
same,TGI,HS 578T breast,> 10 µM
same,TGI,786-0 renal,> 10 µM
same,TGI,A549 NSCLC,> 10 µM
same,TGI,MOLT-4 leukemia,> 10 µM
same,TGI,HCT-116 colon,> 10 µM
same,TGI,HCT-15 colon,> 10 µM
same,TGI,SK-OV-3 ovarian,> 10 µM
same,TGI,IGROV1 ovarian,> 10 µM
same,TGI,OVCAR-3 ovarian,> 10 µM
same,TGI,SW-620 colon,> 10 µM
same,TGI,OVCAR-4 ovarian,> 10 µM
same,TGI,SR leukemia,> 10 µM
same,TGI,HOP-62 NSCLC,> 10 µM
same,TGI,MCF7 breast,> 10 µM
same,TGI,TK-10 renal,> 10 µM
same,TGI,HL-60(TB) leukemia,> 10 µM
same,TGI,SK-MEL-2 melanoma,> 10 µM
same,TGI,NCI-H23 lung,> 10 µM
same,TGI,RPMI-8226 leukemia,> 10 µM
same,TGI,SF-268 CNS,> 10 µM
same,TGI,SNB-75 CNS,> 10 µM
same,TGI,KM12 colon,> 10 µM
same,TGI,MDA-N,> 10 µM
same,TGI,PC-3 prostate,> 10 µM
same,TGI,UO-31 renal,> 10 µM
same,TGI,MALME-3M melanoma,> 10 µM
same,TGI,SK-MEL-5 melanoma,> 10 µM
same,TGI,COLO 205 colon,> 10 µM
same,TGI,HOP-92 NSCLC,> 10 µM
same,TGI,SN12C renal,> 10 µM
same,TGI,NCI/ADR-RES ovarian,> 10 µM
same,TGI,MDA-MB-435,> 10 µM
O=C(Cn1c(=O)oc2ccc(C(=O)c3ccc(F)cc3)cc21)c1ccc([N+](=O)[O-])cc1,TGI,NCI-H522 lung,80.4 µM
same,TGI,SNB-19 CNS,> 100 µM
same,TGI,RXF 393 renal,> 100 µM
same,TGI,T-47D breast,> 100 µM
same,TGI,SK-MEL-28 melanoma,> 100 µM
same,TGI,SF-539 CNS,> 100 µM
same,TGI,NCI-H460 lung,> 100 µM
same,TGI,NCI-H226 lung,> 100 µM
same,TGI,LOX IMVI melanoma,> 100 µM
same,TGI,HCC-2998 colon,37.9 µM
same,TGI,UACC-257 melanoma,> 100 µM
same,TGI,CCRF-CEM leukemia,> 100 µM
same,TGI,U251 CNS,> 100 µM
same,TGI,OVCAR-5 ovarian,> 100 µM
same,TGI,OVCAR-8 ovarian,> 100 µM
same,TGI,ACHN renal,> 100 µM
same,TGI,K-562 leukemia,> 100 µM
same,TGI,DU-145 prostate,> 100 µM
same,TGI,HT29 colon,> 100 µM
same,TGI,UACC-62 melanoma,> 100 µM
same,TGI,HS 578T breast,53.5 µM
same,TGI,786-0 renal,> 100 µM
same,TGI,A498 renal,> 100 µM
same,TGI,A549 NSCLC,> 100 µM
same,TGI,MOLT-4 leukemia,> 100 µM
same,TGI,HCT-116 colon,> 100 µM
same,TGI,HCT-15 colon,> 100 µM
same,TGI,SK-OV-3 ovarian,> 100 µM
same,TGI,IGROV1 ovarian,78.3 µM
same,TGI,SW-620 colon,> 100 µM
same,TGI,OVCAR-4 ovarian,> 100 µM
same,TGI,SR leukemia,> 100 µM
same,TGI,HOP-62 NSCLC,> 100 µM
same,TGI,MCF7 breast,> 100 µM
same,TGI,TK-10 renal,> 100 µM
same,TGI,HL-60(TB) leukemia,60 µM
same,TGI,M14 melanoma,> 100 µM
same,TGI,SK-MEL-2 melanoma,86.2 µM
same,TGI,NCI-H23 lung,> 100 µM
same,TGI,RPMI-8226 leukemia,> 100 µM
same,TGI,SF-268 CNS,> 100 µM
same,TGI,SNB-75 CNS,> 100 µM
same,TGI,KM12 colon,87 µM
same,TGI,MDA-N,60.9 µM
same,TGI,PC-3 prostate,85.9 µM
same,TGI,UO-31 renal,84.4 µM
same,TGI,MALME-3M melanoma,> 100 µM
same,TGI,SK-MEL-5 melanoma,34 µM
same,TGI,COLO 205 colon,> 100 µM
same,TGI,HOP-92 NSCLC,> 100 µM
same,TGI,MDA-MB-231 breast,> 100 µM
same,TGI,SN12C renal,> 100 µM
same,TGI,NCI/ADR-RES ovarian,> 100 µM
same,TGI,MDA-MB-435,72.9 µM
same,TGI,CAKI-1 renal,> 100 µM
O=C(COc1ccc(OCC(=O)N2C(=O)CC(=O)N(c3ccccc3)C2=S)cc1)N1C(=O)CC(=O)N(c2ccccc2)C1=S,TGI,NCI-H522 lung,> 100 µM
same,TGI,SNB-19 CNS,> 100 µM
same,TGI,RXF 393 renal,95 µM
same,TGI,SK-MEL-28 melanoma,> 100 µM
same,TGI,SF-295 CNS,> 100 µM
same,TGI,NCI-H460 lung,> 100 µM
same,TGI,NCI-H226 lung,> 100 µM
same,TGI,HCC-2998 colon,> 100 µM
same,TGI,UACC-257 melanoma,> 100 µM
same,TGI,U251 CNS,> 100 µM
same,TGI,OVCAR-5 ovarian,> 100 µM
same,TGI,ACHN renal,> 100 µM
same,TGI,K-562 leukemia,> 100 µM
same,TGI,DU-145 prostate,> 100 µM
same,TGI,HT29 colon,> 100 µM
same,TGI,UACC-62 melanoma,> 100 µM
same,TGI,EKVX NSCLC,> 100 µM
same,TGI,786-0 renal,> 100 µM
same,TGI,A498 renal,> 100 µM
same,TGI,A549 NSCLC,> 100 µM
same,TGI,MOLT-4 leukemia,> 100 µM
same,TGI,HCT-116 colon,60.1 µM
same,TGI,HCT-15 colon,> 100 µM
same,TGI,SK-OV-3 ovarian,> 100 µM
same,TGI,IGROV1 ovarian,> 100 µM
same,TGI,SW-620 colon,> 100 µM
same,TGI,OVCAR-4 ovarian,> 100 µM
same,TGI,BT-549 breast,> 100 µM
same,TGI,MCF7 breast,> 100 µM
same,TGI,TK-10 renal,> 100 µM
same,TGI,M14 melanoma,> 100 µM
same,TGI,SK-MEL-2 melanoma,> 100 µM
same,TGI,NCI-H23 lung,> 100 µM
same,TGI,RPMI-8226 leukemia,> 100 µM
same,TGI,SF-268 CNS,> 100 µM
same,TGI,SNB-75 CNS,> 100 µM
same,TGI,KM12 colon,> 100 µM
same,TGI,MDA-N,> 100 µM
same,TGI,PC-3 prostate,> 100 µM
same,TGI,UO-31 renal,> 100 µM
same,TGI,MALME-3M melanoma,> 100 µM
same,TGI,COLO 205 colon,> 100 µM
same,TGI,HOP-92 NSCLC,> 100 µM
same,TGI,MDA-MB-231 breast,> 100 µM
same,TGI,SN12C renal,> 100 µM
same,TGI,NCI/ADR-RES ovarian,> 100 µM
same,TGI,MDA-MB-435,> 100 µM
same,TGI,CAKI-1 renal,> 100 µM
